Source: publication PMC10010161 (RSC Advances, 2023)
Where a SMILES comes first, the peptide text is derived from it.

What was measured:
Horizon-LBA = assay type: in vitro ADME; details: DOPC; for relative permeability compared with CsA (in words): 2 h; for degree of decrease of permeability coefficient relative to 1: 1.5 h
[1] = PAMPA; cited from earlier work
Caco-2 = Caco-2 assay; cited from earlier work

Compound	relative permeability compared with CsA (in words) (Horizon-LBA)	degree of decrease of permeability coefficient relative to 1 (Horizon-LBA)	further results
CC[C@@H]1NC(=O)[C@H](C)N(C)C(=O)[C@H](C(C)C)N(C)C(=O)[C@H](CC(C)C)N(C)C(=O)[C@H](CC(C)C)N(C)C(=O)[C@@H](C)NC(=O)[C@H](C)NC(=O)[C@H](CC(C)C)N(C)C(=O)[C@H](C(C)C)NC(=O)[C@H](CC(C)C)N(C)C(=O)CN(C)C1=O [compound 1]	higher permeability than CsA		
CC[C@@H]1NC(=O)[C@H](CC(C)C)N(C)C(=O)[C@H](C(C)C)N(C)C(=O)[C@H](CC(C)C)N(C)C(=O)[C@H](CC(C)C)N(C)C(=O)[C@@H](C)NC(=O)[C@H](C)NC(=O)[C@H](CC(C)C)N(C)C(=O)[C@H](C(C)C)NC(=O)[C@H](CC(C)C)N(C)C(=O)CN(C)C1=O [compound 2]	significant differences in the relative permeability of 2 and 3 from CsA were not observed		
CC[C@@H]1NC(=O)[C@H]([C@@H](C)O)N(C)C(=O)[C@H](C(C)C)N(C)C(=O)[C@H](CC(C)C)N(C)C(=O)[C@H](CC(C)C)N(C)C(=O)[C@@H](C)NC(=O)[C@H](C)NC(=O)[C@H](CC(C)C)N(C)C(=O)[C@H](C(C)C)NC(=O)[C@H](CC(C)C)N(C)C(=O)CN(C)C1=O [compound 3]	significant differences in the relative permeability of 2 and 3 from CsA were not observed		
CC[C@@H]1NC(=O)[C@H](C)N(C)C(=O)[C@H](C(C)C)N(C)C(=O)[C@H](CC(C)C)N(C)C(=O)[C@H](CC(C)C)N(C)C(=O)[C@@H](C)NC(=O)[C@H](C)NC(=O)[C@H](CC(C)C)N(C)C(=O)[C@H](C(C)C)NC(=O)[C@H](C)N(C)C(=O)CN(C)C1=O [compound 5] (HELM PEPTIDE1{A.[dA].[meL].[meL].[meV].[meA].[Abu].[Sar].[meA].V.[meL]}$PEPTIDE1,PEPTIDE1,1:R1-11:R2$$$V2.0)		less than 50%	
CC[C@@H]1NC(=O)[C@H](C)N(C)C(=O)[C@H](C(C)C)N(C)C(=O)[C@H](CC(C)C)N(C)C(=O)[C@H](C)N(C)C(=O)[C@@H](C)NC(=O)[C@H](C)NC(=O)[C@H](CC(C)C)N(C)C(=O)[C@H](C(C)C)NC(=O)[C@H](CC(C)C)N(C)C(=O)CN(C)C1=O [compound 8] (HELM PEPTIDE1{A.[dA].[meA].[meL].[meV].[meA].[Abu].[Sar].[meL].V.[meL]}$PEPTIDE1,PEPTIDE1,1:R1-11:R2$$$V2.0)		less than 50%	
cyclosporin O [CsO]			permeability compared with CsA (in words) [1]: lower permeability of CsO than CsA; permeability compared with CsA (in words) (Caco-2): lower permeability of CsO than CsA
